Results published in patent US9676782B2, “Substituted pyrazolo[1,5-a]pyrazines as negative allosteric modulators of metabotropic glutamate receptor 3” (Vanderbilt University, priority 2014, dated 2017).
Like-named read-outs stand apart in the source and are kept apart here. Blank lines part the entries; values can stand above or below the compound they belong to.

Columns and labels:
[1] = biological target: rat mGlu3 (Rattus norvegicus (Rat), UniProt P31422); assay: mGlu3 Ca2+ flux assay; assay type: cell-based; conditions: for remaining activity at 30 µM: amplitude of response at 30 μM test compound as % of maximal response to glutamate, read-out: rat mGlu3 Glu max (%); for mGlu3 Glu max: response at 30 μM compound as percentage of maximal glutamate response
Sequence of rat mGlu3 (P31422 23-879): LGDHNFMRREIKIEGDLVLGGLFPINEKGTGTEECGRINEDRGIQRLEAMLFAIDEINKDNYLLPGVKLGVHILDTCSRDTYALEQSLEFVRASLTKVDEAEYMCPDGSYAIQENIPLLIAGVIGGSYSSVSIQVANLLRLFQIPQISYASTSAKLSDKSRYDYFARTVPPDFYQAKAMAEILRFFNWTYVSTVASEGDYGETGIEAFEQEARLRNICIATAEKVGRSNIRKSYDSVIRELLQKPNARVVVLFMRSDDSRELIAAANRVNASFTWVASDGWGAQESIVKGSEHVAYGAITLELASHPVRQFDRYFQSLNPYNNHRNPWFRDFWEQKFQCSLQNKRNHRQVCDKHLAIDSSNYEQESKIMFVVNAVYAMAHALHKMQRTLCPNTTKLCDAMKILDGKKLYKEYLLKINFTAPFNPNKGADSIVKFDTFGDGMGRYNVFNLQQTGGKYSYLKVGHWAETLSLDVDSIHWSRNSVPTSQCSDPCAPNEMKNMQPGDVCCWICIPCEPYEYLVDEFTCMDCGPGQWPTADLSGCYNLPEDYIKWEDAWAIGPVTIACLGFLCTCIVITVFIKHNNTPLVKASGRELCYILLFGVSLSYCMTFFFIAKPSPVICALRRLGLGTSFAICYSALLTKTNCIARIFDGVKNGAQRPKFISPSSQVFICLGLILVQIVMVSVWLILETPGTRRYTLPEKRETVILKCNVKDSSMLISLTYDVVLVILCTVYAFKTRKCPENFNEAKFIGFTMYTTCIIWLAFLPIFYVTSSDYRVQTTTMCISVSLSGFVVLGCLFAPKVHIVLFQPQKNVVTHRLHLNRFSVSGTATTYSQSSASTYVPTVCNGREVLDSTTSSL
Procedure, shortened: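 This calcium mobilization assay used rat mGlu3 cells cultured overnight (37° C., 5% CO2) and read on the FDSS7000 after a 10 minute room-temperature incubation in 20 μL assay buffer. Each of 360 readings per well was divided by its initial value (F/F0). Potency came from fitting normalized responses against log concentration with an unconstrained 4 parameter logistic equation, weighting triplicate points equally.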

[2] = biological target: rat mGlu5 (Rattus norvegicus (Rat), UniProt P31424); assay: mGlu5 Ca2+ flux assay; assay type: cell-based; conditions: for Fold selectivity (mGlu3 vs. mGlu5): ratio of rat mGlu5 EC50 or IC50 to rat mGlu3 IC50; for Emax at 30 µM: PAM, amplitude of response at 30 μM test compound as % of maximal response to glutamate, read-out: rat mGlu5 Glu max (%); for mGlu5 Glu max: response at 30 μM compound as percentage of maximal glutamate response
Sequence of rat mGlu5 (P31424 21-1203): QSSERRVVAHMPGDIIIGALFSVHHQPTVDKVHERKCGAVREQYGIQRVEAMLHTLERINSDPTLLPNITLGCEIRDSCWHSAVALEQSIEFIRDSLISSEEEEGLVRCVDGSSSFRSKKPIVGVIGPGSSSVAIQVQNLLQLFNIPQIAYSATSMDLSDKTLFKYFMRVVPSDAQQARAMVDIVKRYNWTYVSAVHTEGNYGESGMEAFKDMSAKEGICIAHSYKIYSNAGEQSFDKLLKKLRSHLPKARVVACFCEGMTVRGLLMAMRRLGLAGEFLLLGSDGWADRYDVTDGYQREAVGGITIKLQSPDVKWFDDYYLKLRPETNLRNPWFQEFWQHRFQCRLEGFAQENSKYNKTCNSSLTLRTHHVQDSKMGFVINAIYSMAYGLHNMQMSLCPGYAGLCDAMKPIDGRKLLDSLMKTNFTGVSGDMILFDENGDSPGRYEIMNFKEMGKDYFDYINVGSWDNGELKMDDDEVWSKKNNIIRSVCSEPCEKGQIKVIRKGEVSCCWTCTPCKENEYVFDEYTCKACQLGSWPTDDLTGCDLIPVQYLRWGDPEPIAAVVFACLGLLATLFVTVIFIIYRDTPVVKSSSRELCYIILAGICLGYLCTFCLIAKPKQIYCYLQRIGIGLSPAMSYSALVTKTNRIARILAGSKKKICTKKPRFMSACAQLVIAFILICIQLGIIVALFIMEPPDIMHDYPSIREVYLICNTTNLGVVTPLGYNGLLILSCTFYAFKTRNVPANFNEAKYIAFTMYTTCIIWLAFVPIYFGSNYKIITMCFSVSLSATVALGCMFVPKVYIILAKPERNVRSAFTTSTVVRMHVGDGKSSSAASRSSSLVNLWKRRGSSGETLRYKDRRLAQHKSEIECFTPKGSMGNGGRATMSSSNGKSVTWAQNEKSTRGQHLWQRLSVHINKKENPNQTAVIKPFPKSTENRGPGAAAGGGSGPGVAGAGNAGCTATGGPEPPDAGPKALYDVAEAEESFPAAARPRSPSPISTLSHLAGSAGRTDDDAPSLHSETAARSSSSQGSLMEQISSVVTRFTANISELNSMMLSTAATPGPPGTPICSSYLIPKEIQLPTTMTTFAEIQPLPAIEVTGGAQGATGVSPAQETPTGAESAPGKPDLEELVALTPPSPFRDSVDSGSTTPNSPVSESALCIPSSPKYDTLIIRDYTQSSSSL
Procedure, shortened: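 Ca2+ flux read kinetically (FDSS7000) after overnight culture at 37° C/5% CO2 and a 5 min room-temperature buffer step following dye removal. Signals expressed per well as F/F0 and normalized to peak glutamate response; EC50 fitted by free 4-parameter logistic, three replicates per concentration equally weighted.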

[3] = test system: central mGlu2 and mGlu3 receptors; conditions: in vivo; cited from earlier work
[4] = test system: Aβ-induced neurodegeneration; conditions: cited from earlier work
[5] = test system: Helpless (H) mice; conditions: genetic model of depression; cited from earlier work
[6] = test system: tumors injected into nude mice; conditions: compared with controls; cited from earlier work
[7] = test system: C57Bl6/J mice; conditions: forced swim test; cited from earlier work
[8] = test system: glioma stem cells (GSC); conditions: in vitro; cited from earlier work
[9] = NAM potency, decrease of glutamate EC80 response, >30,000 = no measurable activity, >10,000 = no plateau, read-out: rat mGlu3 IC50
[10] = read-out: rat mGlu5 EC50 or IC50
[11] = Table 2 compounds with X = NH, read-out: mGlu3 IC50
[12] = Table 2 compounds with X = NH, read-out: mGlu5 EC50
[13] = Table 2 compounds with X = NMe, read-out: mGlu3 IC50
[14] = Table 2 compounds with X = NMe, read-out: mGlu5 EC50
[15] = Table 2 compounds with X = O, read-out: mGlu3 IC50
[16] = Table 2 compounds with X = O, read-out: mGlu5 EC50

Structure (SMILES): Cc1ccc(NCc2cc3n(n2)CCN(c2ccc(F)cc2)C3=O)nc1 [Compound 159, 5-(4-fluorophenyl)-2-(((5-methylpyridin-2-yl)amino)methyl)-6,7-dihydropyrazolo[1,5-a]pyrazin-4(5H)-one]
IC50 [1, 9]: 1770 nM
remaining activity at 30 µM [1]: 0.86%
Fold selectivity (mGlu3 vs. mGlu5) [2]: >16
EC50 [2, 10]: > 30000 nM

Structure (SMILES): Cc1cccnc1NCc1cc2n(n1)CCN(c1ccc(F)cc1)C2=O [Compound 160, 5-(4-fluorophenyl)-2-(((3-methylpyridin-2-yl)amino)methyl)-6,7-dihydropyrazolo[1,5-a]pyrazin-4(5H)-one]
IC50 [1, 9]: 4700 nM
remaining activity at 30 µM [1]: 0.18%
Fold selectivity (mGlu3 vs. mGlu5) [2]: >6.3
EC50 [2, 10]: > 30000 nM

Structure (SMILES): Cc1ccnc(NCc2cc3n(n2)CCN(c2ccc(F)cc2)C3=O)c1 [Compound 161, 5-(4-fluorophenyl)-2-(((4-methylpyridin-2-yl)amino)methyl)-6,7-dihydropyrazolo[1,5-a]pyrazin-4(5H)-one]
IC50 [1, 9]: 3750 nM
remaining activity at 30 µM [1]: 1.14%
Fold selectivity (mGlu3 vs. mGlu5) [2]: >8.0
EC50 [2, 10]: > 30000 nM

Structure (SMILES): O=C1c2cc(CNc3ncccc3C(F)(F)F)nn2CCN1c1ccc(F)cc1 [Compound 162, 5-(4-fluorophenyl)-2-(((3-(trifluoromethyl)pyridin-2-yl)amino)methyl)-6,7-dihydropyrazolo[1,5-a]pyrazin-4(5H)-one]
IC50 [1, 9]: 3840 nM
remaining activity at 30 µM [1]: 0.79%
Fold selectivity (mGlu3 vs. mGlu5) [2]: >7.8
EC50 [2, 10]: > 30000 nM

Structure (SMILES): O=C1c2cc(CNc3cccc(Cl)n3)nn2CCN1c1ccc(F)cc1 [Compound 163, 2-(((6-chloropyridin-2-yl)amino)methyl)-5-(4-fluorophenyl)-6,7-dihydropyrazolo[1,5-a]pyrazin-4(5H)-one]
IC50 [1, 9]: 1180 nM
remaining activity at 30 µM [1]: 1.15%
Fold selectivity (mGlu3 vs. mGlu5) [2]: >25
EC50 [2, 10]: > 30000 nM

Structure (SMILES): O=C1c2cc(CNc3cc(Cl)ccn3)nn2CCN1c1ccc(F)cc1 [Compound 164, 2-(((4-chloropyridin-2-yl)amino)methyl)-5-(4-fluorophenyl)-6,7-dihydropyrazolo[1,5-a]pyrazin-4(5H)-one]
IC50 [1, 9]: 1320 nM
remaining activity at 30 µM [1]: 2.99%
Emax at 30 µM [2]: 35.3%
Fold selectivity (mGlu3 vs. mGlu5) [2]: >7.5
EC50 [2, 10]: > 10000 nM

Structure (SMILES): O=C1c2cc(CNc3ncccc3F)nn2CCN1c1ccc(F)cc1 [Compound 165, 5-(4-fluorophenyl)-2-(((3-fluoropyridin-2-yl)amino)methyl)-6,7-dihydropyrazolo[1,5-a]pyrazin-4(5H)-one]
IC50 [1, 9]: 2110 nM
remaining activity at 30 µM [1]: 1.66%
Fold selectivity (mGlu3 vs. mGlu5) [2]: >14
EC50 [2, 10]: > 30000 nM

Structure (SMILES): O=C1c2cc(CNc3cccc(C(F)(F)F)n3)nn2CCN1c1ccc(F)cc1 [Compound 166, 5-(4-fluorophenyl)-2-(((6-(trifluoromethyl)pyridin-2-yl)amino)methyl)-6,7-dihydropyrazolo[1,5-a]pyrazin-4(5H)-one]
IC50 [1, 9]: 2350 nM
remaining activity at 30 µM [1]: 2.06%
Emax at 30 µM [2]: 50.6%
Fold selectivity (mGlu3 vs. mGlu5) [2]: >4.2
EC50 [2, 10]: > 10000 nM

remaining activity at 30 µM [1]: 1.32%
IC50 ([1]; read-out: rat mGlu3 IC50): 3720 nM
Fold selectivity (mGlu3 vs. mGlu5) [2]: 8.06
EC50 [2, 10]: > 30000 nM
Structure (SMILES): CCCN(Cc1cc2n(n1)CCN(c1ccc(F)c(F)c1)C2=O)c1ccc(OC)cc1 [Compound 167, 5-(3,4-Difluorophenyl)-2-(((4-methoxyphenyl)(propyl)amino)methyl)-6,7-dihydropyrazolo[1,5-a]pyrazin-4(5H)-one]

remaining activity at 30 µM [1]: 1.95%
IC50 ([1]; read-out: rat mGlu3 IC50): 2120 nM
Fold selectivity (mGlu3 vs. mGlu5) [2]: >14
EC50 [2, 10]: > 30000 nM
Structure (SMILES): CCN(Cc1cc2n(n1)CCN(c1ccc(F)c(F)c1)C2=O)c1ccc(OC)cc1 [Compound 168, 5-(3,4-difluorophenyl)-2-((ethyl(4-methoxyphenyl)amino)methyl)-6,7-dihydropyrazolo[1,5-a]pyrazin-4(5H)-one]

Structure (SMILES): COc1ccc(NC(C)c2cc3n(n2)CCN(c2ccc(F)cc2)C3=O)cc1 (stereo not drawn) [Compound 169, 5-(4-Fluorophenyl)-2-(1-((4-methoxyphenyl)amino)ethyl)-6,7-dihydropyrazolo[1,5-a]pyrazin-4(5H)-one]
IC50 [1, 9]: 7740 nM
remaining activity at 30 µM [1]: -6.64%
Fold selectivity (mGlu3 vs. mGlu5) [2]: >3.8
EC50 [2, 10]: > 30000 nM

Structure (SMILES): CC(Nc1ccccc1)c1cc2n(n1)CCN(c1ccc(F)cc1)C2=O (stereo not drawn) [Compound 170, 5-(4-fluorophenyl)-2-(1-(phenylamino)ethyl)-6,7-dihydropyrazolo[1,5-a]pyrazin-4(5H)-one]
IC50 [1, 9]: 2850 nM
remaining activity at 30 µM [1]: 0.67%
Fold selectivity (mGlu3 vs. mGlu5) [2]: >10
EC50 [2, 10]: > 30000 nM

Structure (SMILES): CC(Nc1ccc(F)cc1)c1cc2n(n1)CCN(c1ccc(F)cc1)C2=O (stereo not drawn) [Compound 171, 5-(4-fluorophenyl)-2-(1-((4-fluorophenyl)amino)ethyl)-6,7-dihydropyrazolo[1,5-a]pyrazin-4(5H)-one]
IC50 [1, 9]: 2150 nM
remaining activity at 30 µM [1]: 0.39%
Fold selectivity (mGlu3 vs. mGlu5) [2]: >13
EC50 [2, 10]: > 30000 nM

Structure (SMILES): CC(Nc1ccc(Cl)cc1)c1cc2n(n1)CCN(c1ccc(F)cc1)C2=O (stereo not drawn) [Compound 172, 2-(1-((4-chlorophenyl)amino)ethyl)-5-(4-fluorophenyl)-6,7-dihydropyrazolo[1,5-a]pyrazin-4(5H)-one]
IC50 [1, 9]: 1550 nM
remaining activity at 30 µM [1]: 1.29%
Fold selectivity (mGlu3 vs. mGlu5) [2]: >19
EC50 [2, 10]: > 30000 nM

Structure (SMILES): N[C@](CC1c2ccccc2Oc2ccccc21)(C(=O)O)[C@H]1C[C@@H]1C(=O)O [LY341495]
reversal of hypolocomotor effect of LY379268 [3]: achieved the same result
effect on Aβ-induced neurodegeneration [4]: prevented
activity in the tail suspension test [5]: active
growth rate of tumors [6]: reduced
volume of tumors [6]: reduced
immobility time [7]: dose-dependently reduced immobility time
proliferation rates [8]: decreased in a time-dependent manner
proportion of cells in S phase [8]: decreased in a time-dependent manner

Structure (SMILES): CCS(=O)(=O)N(Cc1cccnc1)c1cccc(-c2ccc(C#N)cc2)c1 [LY566332]
effect on Aβ-induced neurodegeneration [4]: amplified Aβ-induced neurodegeneration

Structure (SMILES): Cc1cc(-c2cccc(C3=Nc4cc(C)c(C(F)(F)F)cc4NC(=O)C3)c2)cc(C)n1 [RO4491533]
reversal of hypolocomotor effect of LY379268 [3]: reversed the hypolocomotor effect
activity in the tail suspension test [5]: active
immobility time [7]: dose-dependently reduced immobility time

Structure (SMILES): O=C1c2cc(CNc3ccccc3)nn2CCN1c1ccc(F)cc1 [drawing 29 X = NH]
IC50 [1, 11]: 1320 nM
mGlu3 Glu max ([1]; Table 2 compounds with X = NH): 2%
EC50 [2, 12]: 2040 nM
mGlu5 Glu max ([2]; Table 2 compounds with X = NH): 98%

Structure (SMILES): CN(Cc1cc2n(n1)CCN(c1ccc(F)cc1)C2=O)c1ccccc1 [drawing 29 X = NMe]
IC50 [1, 13]: 1220 nM
mGlu3 Glu max ([1]; Table 2 compounds with X = NMe): 1%
EC50 [2, 14]: > 30000 nM

IC50 [1, 15]: 278 nM
mGlu3 Glu max ([1]; Table 2 compounds with X = O): 2%
EC50 [2, 16]: 44 nM
mGlu5 Glu max ([2]; Table 2 compounds with X = O): 79%
Structure (SMILES): O=C1c2cc(COc3ccccc3)nn2CCN1c1ccc(F)cc1 [drawing 29 X = O, reference compound]

Structure (SMILES): O=C1c2cc(CNc3ccccc3F)nn2CCN1c1ccc(F)cc1 [drawing 30 X = NH]
IC50 [1, 11]: 944 nM
mGlu3 Glu max ([1]; Table 2 compounds with X = NH): 2%
EC50 [2, 12]: 2470 nM
mGlu5 Glu max ([2]; Table 2 compounds with X = NH): 96%

Structure (SMILES): CN(Cc1cc2n(n1)CCN(c1ccc(F)cc1)C2=O)c1ccccc1F [drawing 30 X = NMe]
IC50 [1, 13]: 876 nM
mGlu3 Glu max ([1]; Table 2 compounds with X = NMe): −1%
EC50 [2, 14]: > 30000 nM

IC50 [1, 15]: 264 nM
mGlu3 Glu max ([1]; Table 2 compounds with X = O): 2%
EC50 [2, 16]: 147 nM
mGlu5 Glu max ([2]; Table 2 compounds with X = O): 61%
Structure (SMILES): O=C1c2cc(COc3ccccc3F)nn2CCN1c1ccc(F)cc1 [drawing 30 X = O, reference compound]

Structure (SMILES): O=C1c2cc(CNc3cccc(F)c3)nn2CCN1c1ccc(F)cc1 [drawing 31 X = NH]
IC50 [1, 11]: 1040 nM
mGlu3 Glu max ([1]; Table 2 compounds with X = NH): 1%
EC50 [2, 12]: 2210 nM
mGlu5 Glu max ([2]; Table 2 compounds with X = NH): 99%

Structure (SMILES): CN(Cc1cc2n(n1)CCN(c1ccc(F)cc1)C2=O)c1cccc(F)c1 [drawing 31 X = NMe]
IC50 [1, 13]: 594 nM
mGlu3 Glu max ([1]; Table 2 compounds with X = NMe): 2%
EC50 [2, 14]: 7760 nM
mGlu5 Glu max ([2]; Table 2 compounds with X = NMe): 110%

IC50 [1, 15]: 132 nM
mGlu3 Glu max ([1]; Table 2 compounds with X = O): 1%
EC50 [2, 16]: 192 nM
mGlu5 Glu max ([2]; Table 2 compounds with X = O): 69%
Structure (SMILES): O=C1c2cc(COc3cccc(F)c3)nn2CCN1c1ccc(F)cc1 [drawing 31 X = O, reference compound]

Structure (SMILES): CN(Cc1cc2n(n1)CCN(c1ccc(F)cc1)C2=O)c1ccc(F)cc1 [drawing 32 X = NMe]
IC50 [1, 13]: 467 nM
mGlu3 Glu max ([1]; Table 2 compounds with X = NMe): 1%
EC50 [2, 14]: > 30000 nM

IC50 [1, 15]: 108 nM
mGlu3 Glu max ([1]; Table 2 compounds with X = O): 1%
EC50 [2, 16]: 106 nM
mGlu5 Glu max ([2]; Table 2 compounds with X = O): 71%
Structure (SMILES): O=C1c2cc(COc3ccc(F)cc3)nn2CCN1c1ccc(F)cc1 [drawing 32 X = O, reference compound]
